Assay results: US10058520B2, “Compositions and methods for treating alzheimer's disease and dementia” (Department of Veterans Affairs, priority 2007, dated 2018)

Tests used:
human Aβ 1-40 and 1-42 [1] = test: ELISA for human Aβ in brain of huAPP transgenic mice treated with CHP+Zn; format: in vivo, human APP transgenic mice; conditions: 1.0 mg/L CHP+10 mg/L Zn, or Zn or CHP alone, n=9, FIG. 14
From the text: According to our studies, CHP in combination with a zinc salt decreases Aβ 1-40 and 1-42 in mice transgenic for human APP. […]
In some embodiments, higher doses are effective as well.

insulin levels = conditions: previous studies; concentration dependent relative to the amount of zinc; cited from earlier work
[2] = humans and mice; previous studies; cited from earlier work
[3] = tested on: APP secretion in SH-SY5Y and LA-N-5 human neuroblastoma cell lines and NHNP neuronal progenitor cells; test: APP isoform secretion in human neuroblastoma and neuronal progenitor cells (western blot); format: cell-based; conditions: differentiated (+RA) and undifferentiated (-RA) SH-SY5Y, all tested human cell lines, 24 hours of treatment, FIG. 1
[4] = blood, after a single dose; cited from earlier work
human Aβ 1-40 and 1-42 [5] = test: ELISA for human Aβ in brain of R1.40 huAPP transgenic mice treated with T4; format: in vivo, R1.40 human APP transgenic mice
From the text: In another study, we discovered that thyroid hormone down-regulates Aβ 1-40 and 1-42 in mice transgenic for the human APP gene. […] R1.40 human APP transgenic mice contain the entire human APP gene carried on a yeast artificial chromosome.
Mice used in these studies carried the complete human APP gene (huAPP), including the 5′ upstream promoter region, inserted into a yeast artificial chromosome (YAC) construct and are referred to as huAPP-YAC transgenic mice (R1.40 strain). The huAPP gene in these mice contained the Swedish mutation and is expressed in high pathology brain regions.
R1.40 mice were implanted with T4 containing slow release pellets for three weeks and ELISA specific for human Aβ was performed utilizing normalized protein from mouse brain cytosols. We observed a 30% decrease in human Aβ 1-42 levels and a 25% decrease in Aβ 1-40 levels in mice treated for three weeks with T4. […] Thus, it has been shown that low level thyroid hormone therapy substantially decreases human Aβ40 and Aβ42 levels in both normal and hypothyroid transgenic mice (n=9 animals per group ±SD).

APP gene = test: RT-PCR of APP mRNA in brain of normal mice; format: in vivo; conditions: normal mouse brain, day 21; FIG. 2 and 3; APP 751 mRNA for hypothyroid mice
From the text: On day 21, animals were killed, whole brains were removed and hemisected for protein and RNA analysis, and serum was collected for T4 analysis.

APP isoforms = test: Western blot with anti-APP antibody on hemisected brain extracts; format: in vivo, mice; conditions: day 21, FIG. 4
Experimental: In FIG. 4, Western blots were performed utilizing anti-APP antibody on protein from the hemisected brain extracts.

[6] = tested on: +356/+755 region of the first intron of the mouse mdm2 gene in LA-N-5 neuroblastoma cells and HCC1806 breast cancer cells; test: pGL3MDM2 reporter transfection assay; format: cell-based; conditions: LA-N-5 and p53 negative HCC1806 cells; FIG. 8 (treatment with T3)
From the text: In order to evaluate the direct effect of thyroid hormone on mdm2 gene expression, we cloned the +356/+755 region from the first intron of the mouse mdm2 gene into pGL3-Promoter vector (pGL3MDM2) for use in transfection assays. This region contains an element which binds monomers and homodimers of TRα, in addition to heterodimers of TRα and RXRβ.

[7] = R1.40 mice, T4 slow release pellets for three weeks, brain cytosols, ELISA

O=C1N[C@@H](Cc2cnc[nH]2)C(=O)N2CCC[C@@H]12 [CHP, cyclo-Hispro]
brain levels of soluble and insoluble Aβ40 and Aβ42 vs control (human Aβ 1-40 and 1-42 [1]): no significant changes
insulin levels (insulin levels): does not decrease
toxicity [2]: non-toxic

N[C@@H](Cc1cc(I)c(Oc2ccc(O)c(I)c2)c(I)c1)C(=O)O [T3, L-triiodothyronine]
APP secretion [3]: negative hormonal regulation of APP secretion in a concentration dependent manner
half-life [4]: hours

NC(Cc1cc(I)c(Oc2cc(I)c(O)c(I)c2)c(I)c1)C(=O)O (stereo not shown) [T4, 3:5,3′:5′ tetra-iodothyronine]
half-life [4]: several days
decrease in Aβ 1-40 levels (human Aβ 1-40 and 1-42 [5]; [7]): 25%
decrease in human Aβ 1-42 levels (human Aβ 1-40 and 1-42 [5]; [7]): 30%

[Zn] [Zn]
brain levels of soluble and insoluble Aβ40 and Aβ42 vs control (human Aβ 1-40 and 1-42 [1]): no significant changes

CCCc1cc(=O)[nH]c(=S)[nH]1 [propylthiouracil]
APP mRNA levels (RT-PCR) vs control animals (APP gene): increased
brain Aβ levels in hypothyroid animals (human Aβ 1-40 and 1-42 [5]; iodine-deficient PTU diet for three weeks, FIG. 6): increase
expression of APP isoforms (western blot) relative to euthyroid animals (APP isoforms): increased

thyroid hormone
reporter expression of pGL3MDM2 [6]: negative regulation
